Results: patent US10519134B2, “Pyrazole compounds and methods of making and using same” (Lundbeck La Jolla Research Center, Inc., priority 2015, dated 2019)

Assays:
[1] = target: T1, FAAH (Mus musculus, UniProt O08914); assay: In vitro competitive activity-based protein profiling (mouse), FAAH gel band; format: biochemical; conditions: for IC50: mouse; for inhibition at 1 µM: read-out: FAAH % inh. 1 μM
T1 construct: Proteomes (mouse brain membrane fraction or cell lysates); from tissue; host or cells: mouse brain membrane fraction (or cell lysates)
T1 sequence (O08914 1-579): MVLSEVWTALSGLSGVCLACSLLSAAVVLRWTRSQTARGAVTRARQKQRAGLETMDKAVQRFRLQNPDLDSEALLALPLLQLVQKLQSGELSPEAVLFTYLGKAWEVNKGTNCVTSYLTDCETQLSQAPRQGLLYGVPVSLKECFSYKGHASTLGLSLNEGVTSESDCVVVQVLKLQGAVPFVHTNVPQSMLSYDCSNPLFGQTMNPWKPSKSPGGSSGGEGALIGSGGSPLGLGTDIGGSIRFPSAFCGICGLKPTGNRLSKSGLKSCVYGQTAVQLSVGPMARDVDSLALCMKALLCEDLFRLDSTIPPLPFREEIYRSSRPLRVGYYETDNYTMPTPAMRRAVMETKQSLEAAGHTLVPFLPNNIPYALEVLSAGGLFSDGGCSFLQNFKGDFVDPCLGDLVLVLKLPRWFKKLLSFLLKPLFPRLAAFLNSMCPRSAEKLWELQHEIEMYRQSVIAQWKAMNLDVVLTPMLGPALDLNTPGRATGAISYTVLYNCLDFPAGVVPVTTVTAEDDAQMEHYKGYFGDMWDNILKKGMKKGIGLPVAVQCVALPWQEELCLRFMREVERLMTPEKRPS
Procedure, shortened: (§1)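 Mouse brain membrane proteome or cell lysate (1.0 mg/mL total protein) was preincubated with varying inhibitor concentrations for 30 min at 37 °C, then labelled for 30 min at 37 °C with FP-Rh or HT-01 (50 μM stock in DMSO). Activity was read as fluorescent band intensity after SDS-PAGE.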

[2] = target: T2, MAGL (Mus musculus, UniProt O35678); assay: In vitro competitive activity-based protein profiling (mouse), MAGL gel band; format: biochemical; conditions: for IC50: mouse; for inhibition at 1 µM: read-out: MAGL % inh. 1 μM
T2 construct: Proteomes (mouse brain membrane fraction or cell lysates); from tissue; host or cells: mouse brain membrane fraction (or cell lysates)
T2 sequence (O35678 1-303): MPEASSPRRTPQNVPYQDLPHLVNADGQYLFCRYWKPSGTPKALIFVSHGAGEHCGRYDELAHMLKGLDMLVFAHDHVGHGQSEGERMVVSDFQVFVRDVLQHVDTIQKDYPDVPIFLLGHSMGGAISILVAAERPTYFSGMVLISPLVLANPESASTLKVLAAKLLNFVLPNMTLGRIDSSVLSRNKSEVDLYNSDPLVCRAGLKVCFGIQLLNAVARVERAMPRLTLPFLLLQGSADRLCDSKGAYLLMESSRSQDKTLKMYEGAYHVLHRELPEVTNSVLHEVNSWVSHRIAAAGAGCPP
Procedure, shortened: as §1

IC50 [1] [nM]	inhibition at 1 µM [1] [%]	IC50 [2] [nM]	inhibition at 1 µM [2] [%]	SMILES
1000 to 10000	0 to 25	100 to 1000	≥ 75	CCN1CCN(c2cc(Cl)ccc2CN2CCCC23CCN(C(=O)n2ccc(NC(C)=O)n2)CC3)CC1 [Example 15, N-(1-(1-(4-chloro-2-(4-ethylpiperazin-1-yl)benzyl)-1,8-diazaspiro[4.5]decane-8-carbonyl)-1H-pyrazol-3-yl)acetamide]
100 to 1000	≥ 75	100 to 1000	≥ 75	Cc1cc(-c2ccccc2)ccc1CN1CCN(C(=O)n2ccc(NS(C)(=O)=O)n2)CC1 [Example 150, N-(1-(4-((3-methyl-[1,1′-biphenyl]-4-yl)methyl)piperazine-1-carbonyl)-1H-pyrazol-3-yl) methanesulfonamide]
1000 to 10000	0 to 25	≤ 100	≥ 75	CC(=O)Nc1ccn(C(=O)N2CCC3(CCCN3Cc3ccc(N4CCCC4)c(Cl)c3)CC2)n1 [Example 100, N-(1-(1-(3-chloro-4-(pyrrolidin-1-yl)benzyl)-1,8-diazaspiro[4.5]decane-8-carbonyl)-1H-pyrazol-3-yl)acetamide]
1000 to 10000	0 to 25	≤ 100	≥ 75	CC(=O)Nc1ccn(C(=O)N2CCN(Cc3ccc(C(F)(F)F)cc3N3CCC(F)(F)CC3)CC2)n1 [Example 46, N-(1-(4-(2-(4,4-difluoropiperidin-1-yl)-4-(trifluoromethyl)benzyl)piperazine-1-carbonyl)-1H-pyrazol-3-yl)acetamide]
	0 to 25		25 to 50	CS(=O)(=O)Nc1ccn(C(=O)N2CCN(Cc3cc(N4CCN(S(C)(=O)=O)CC4)cc(C(F)(F)F)c3)CC2)n1 [Example 254, N-(1-(4-(3-(4-(methylsulfonyl)piperazin-1-yl)-5-(trifluoromethyl)benzyl)piperazine-1-carbonyl)-1H-pyrazol-3-yl) methanesulfonamide]
1000 to 10000	0 to 25	≤ 100	≥ 75	CS(=O)(=O)Nc1ccn(C(=O)N2CCN(Cc3ccc(Cl)cc3N3CC4CCC(C3)O4)CC2)n1 [Example 256, N-(1-(4-(2-(8-oxa-3-azabicyclo[3.2.1]octan-3-yl)-4-chlorobenzyl)piperazine-1-carbonyl)-1H-pyrazol-3-yl) methanesulfonamide]
	0 to 25		50 to 75	CS(=O)(=O)Nc1ccn(C(=O)N2CCC3(CCCN3Cc3cccc(N4CCOCC4)c3Cl)CC2)n1 [Example 143, N-(1-(1-(2-chloro-3-morpholinobenzyl)-1,8-diazaspiro[4.5]decane-8-carbonyl)-1H-pyrazol-3-yl) methanesulfonamide]
1000 to 10000	0 to 25	100 to 1000	≥ 75	CS(=O)(=O)Nc1ccn(C(=O)N2CCC3(CCCN3Cc3cccc(N4CCCC4)c3Cl)CC2)n1 [Example 141, N-(1-(1-(2-chloro-3-(pyrrolidin-1-yl)benzyl)-1,8-diazaspiro[4.5]decane-8-carbonyl)-1H-pyrazol-3-yl) methanesulfonamide]
1000 to 10000	0 to 25	≤ 100	≥ 75	CC(=O)Nc1ccn(C(=O)N2CCC3(CCCN3Cc3ccc(C(F)(F)F)cc3N3CCCCC3)CC2)n1 [Example 19, N-(1-(1-(2-(piperidin-1-yl)-4-(trifluoromethyl)benzyl)-1,8-diazaspiro[4.5]decane-8-carbonyl)-1H-pyrazol-3-yl)acetamide]
	0 to 25		0 to 25	CS(=O)(=O)Nc1ccn(C(=O)N2CCN(Cc3cc(N4CCC(C(=O)O)C4)cc(C(F)(F)F)c3)CC2)n1 (centres unmarked) [Example 244, 1-(3-((4-(3-(methylsulfonamido)-1H-pyrazole-1-carbonyl)piperazin-1-yl)methyl)-5-(trifluoromethyl)phenyl)pyrrolidine-3-carboxylic acid]
1000 to 10000	0 to 25	100 to 1000	≥ 75	CC(=O)Nc1ccn(C(=O)N2CCC3(CCCN3Cc3ccc(N4CCOCC4)c(Cl)c3)CC2)n1 [Example 99, N-(1-(1-(3-chloro-4-morpholinobenzyl)-1,8-diazaspiro[4.5]decane-8-carbonyl)-1H-pyrazol-3-yl)acetamide]
1000 to 10000	0 to 25	100 to 1000	≥ 75	CC(=O)Nc1ccn(C(=O)N2CCC3(CCCN3Cc3ccc(Cl)cc3N3CCN(C(C)=O)CC3)CC2)n1 [Example 36, N-(1-(1-(2-(4-acetylpiperazin-1-yl)-4-chlorobenzyl)-1,8-diazaspiro[4.5]decane-8-carbonyl)-1H-pyrazol-3-yl)acetamide]
1000 to 10000	0 to 25	≤ 100	≥ 75	CS(=O)(=O)Nc1ccn(C(=O)N2CCN(Cc3ccc(Cl)cc3N3CCCCC3)CC2)n1 [Example 128, N-(1-(4-(4-chloro-2-(piperidin-1-yl)benzyl)piperazine-1-carbonyl)-1H-pyrazol-3-yl) methanesulfonamide]
	0 to 25		≥ 75	CC(=O)Nc1ccn(C(=O)N2CCC3(CCCN3Cc3ccc(C(=O)O)c(C(F)(F)F)c3)CC2)n1 [Example 110, 4-((8-(3-acetamido-1H-pyrazole-1-carbonyl)-1,8-diazaspiro[4.5]decan-1-yl)methyl)-2-(trifluoromethyl)benzoic Acid]
1000 to 10000	0 to 25	100 to 1000	≥ 75	CC(=O)Nc1ccn(C(=O)N2CCC3(CCCN3Cc3ccc(Cl)cc3N3CCOCC3)CC2)n1 [Example 16, N-(1-(1-(4-chloro-2-morpholinobenzyl)-1,8-diazaspiro[4.5]decane-8-carbonyl)-1H-pyrazol-3-yl)acetamide]
	0 to 25		0 to 25	CS(=O)(=O)Nc1ccn(C(=O)N2CCN(Cc3ccc(Cl)c(N4CCC(C(N)=O)CC4)c3)CC2)n1 [Example 249, 1-(2-chloro-5-((4-(3-(methylsulfonamido)-1H-pyrazole-1-carbonyl)piperazin-1-yl)methyl)phenyl) piperidine-4-carboxamide]
	0 to 25		0 to 25	CS(=O)(=O)Nc1ccn(C(=O)N2CCC3(CCCN3Cc3ccc(C(F)(F)F)cc3N3CCN(C4CC4)CC3)CC2)n1 [Example 239, N-(1-(1-(2-(4-cyclopropylpiperazin-1-yl)-4-(trifluoromethyl)benzyl)-1,8-diazaspiro[4.5]decane-8-carbonyl)-1H-pyrazol-3-yl) methanesulfonamide]
	0 to 25		≥ 75	CS(=O)(=O)Nc1ccn(C(=O)N2CCC3(CCCN3Cc3ccc(C(F)(F)F)cc3N3CCOCC3)CC2)n1 [Example 126, N-(1-(1-(2-morpholino-4-(trifluoromethyl)benzyl)-1,8-diazaspiro[4.5]decane-8-carbonyl)-1H-pyrazol-3-yl)methanesulfonamide]
1000 to 10000	0 to 25	1000 to 10000	≥ 75	Cc1c(CN2CCCC23CCN(C(=O)n2ccc(NS(C)(=O)=O)n2)CC3)cccc1N1CCCC1 [Example 224, N-(1-(1-(2-methyl-3-(pyrrolidin-1-yl)benzyl)-1,8-diazaspiro[4.5]decane-8-carbonyl)-1H-pyrazol-3-yl) methanesulfonamide]
